Results on 1 molecule are retold here after publication PMC7939384, “In crystallo screening for proline analog inhibitors of the proline cycle enzyme PYCR1” (The Journal of Biological Chemistry, 2021).

For assay [1], the target named is T1, E. coli PutA PRODH domain (EcPutA86-630) (Escherichia coli, UniProt P09546).
T1 construct: Proline Utilization A from E. coli (EcPutA86-630)
In words: PRODH activity assay (o-AB/P5C adduct at 443 nm). Type of assay: biochemical. The settings on record: 100 mM NFLP as substrate; 0, 1, 5 or 10 mM NFLP with 100 mM L-proline. Here is the method: The rates have been normalized to the rate obtained in the absence of NFLP.
Assays were performed to test whether NFLP is a substrate or inhibitor of PRODH. Because of challenges in obtaining active recombinant human PRODH, which is an inner mitochondrial membrane protein, these experiments used the PRODH domain of the bifunctional proline catabolic enzyme, Proline Utilization A from E. coli (EcPutA86-630). The active sites of human and bacterial PutA PRODH domains are very highly conserved. For example, all residues that contact proline analog inhibitors in crystal structures of bacterial PRODHs are identically present in human PRODH, as we described previously ([6]). Thus, bacterial PRODHs are considered to be good surrogates for identifying inhibitors of human PRODH. Indeed, the inhibitors discovered using bacterial PRODHs show on-target activity in cancer cells and animal models of cancer ([5], [21]).
PRODH activity was measured in a BioTek Epoch 2 microplate spectrophotometer by monitoring P5C as the adduct formed by the reaction with o-AB at 443 nm. The assays were conducted at 25°C in 20 mM MOPS, pH 7.5, and 10 mM MgCl2 with 4 mM o-AB, 0.15 mM menadione (electron acceptor to re-oxidize the FAD), and 1.3 μM of EcPutA86-630. The enzyme mixture contained EcPutA86-630, o-AB, menadione, and buffer. […]

In the next assay the target is T2, human PYCR1 (Homo sapiens, UniProt P32322).
T2 sequence (P32322 1-300): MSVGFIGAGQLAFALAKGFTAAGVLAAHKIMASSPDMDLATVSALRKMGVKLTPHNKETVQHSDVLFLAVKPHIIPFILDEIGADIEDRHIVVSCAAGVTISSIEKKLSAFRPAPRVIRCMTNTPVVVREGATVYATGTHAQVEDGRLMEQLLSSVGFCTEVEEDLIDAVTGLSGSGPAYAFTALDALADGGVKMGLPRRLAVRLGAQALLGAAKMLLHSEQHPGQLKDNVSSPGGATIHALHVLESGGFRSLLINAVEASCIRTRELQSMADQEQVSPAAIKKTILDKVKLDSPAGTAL
In words: In crystallo screening: electron density as readout for binding (crystal soaking). Details: includes residues 1–300 of the full-length 319-residue enzyme; inferred from the Ni-NTA purification; made in house; host or cells: Escherichia coli BL21 (DE3). The settings on record: apo crystals soaked with 25–500 mM of the proline analog. The procedure: Over two dozen proline analogs (Fig. 2) were screened using electron density from X-ray crystallography as the readout for binding to human PYCR1. […] Because the compounds bind in the P5C/proline site, the mechanism of inhibition was assumed to be competitive with P5C. Therefore, steady-state kinetic measurements were performed with L-P5C as the variable substrate (0-1000 μM) and NADH fixed (175 μM) (Fig. 3). For each compound, the data were fit globally to a competitive inhibition model (Equation 1) to obtain an inhibition constant, Ki.
06594), D,L-thiazolidine-2-carboxylate (Sigma-Aldrich no. 467995), L-thiazolidine-4-carboxylate (Sigma-Aldrich no. T27502), 1,3-thiazolidine-2,4-dicarboxylate (Sigma-Aldrich no. CDS000186), dimethyl 1,3-thiazolidine-2,4-dicarboxylate (Sigma-Aldrich no. […] 287067), L-4-hydroxyproline methyl ester (hydrochloride) (Sigma-Aldrich no. 30681), cis-4-hydroxy-D-proline methyl ester (hydrochloride) (Sigma-Aldrich no. […] 441562), L-(+)-mandelic acid (Sigma-Aldrich no. 63460), sodium-L-lactate (Sigma-Aldrich no. 71718), D-cycloserine (Sigma-Aldrich no. C6880). The proline analogs were added to apo crystals during cryoprotection by soaking the crystals in the reservoir solution supplemented with cryoprotectant (PEG 200 for the PEG 3350 form; glycerol for the NaCl form) and then in the same cryobuffer supplemented with 25–500 mM of the proline analog. Following equilibration, the crystals were harvested and rapidly plunged into liquid nitrogen.
The complex of PYCR1 with THFA was obtained by soaking a C2 crystal (NaCl form) for 15 min in a cryo-buffer consisting of the reservoir solution (3 M NaCl and 0.1 M HEPES at pH 7.5–8.0) supplemented with 30% glycerol and 50 mM THFA, followed by flash-cooling in liquid nitrogen. Crystals of the NFLP complex were prepared by soaking P2_12_12 crystals in the reservoir solution (250 mM Li2SO4, 19% (w/v) PEG 3350, 0.1 M HEPES, pH 7.5) supplemented with 20% (v/v) PEG 200 and 100 mM NFLP. The complexes with L-T2C and L-T4C were prepared similarly, except the Li2SO4 concentration was reduced to 25 mM and 50 mM of either L-T4C or D,L-T2C was included.

T1 sequence (P09546 86-630): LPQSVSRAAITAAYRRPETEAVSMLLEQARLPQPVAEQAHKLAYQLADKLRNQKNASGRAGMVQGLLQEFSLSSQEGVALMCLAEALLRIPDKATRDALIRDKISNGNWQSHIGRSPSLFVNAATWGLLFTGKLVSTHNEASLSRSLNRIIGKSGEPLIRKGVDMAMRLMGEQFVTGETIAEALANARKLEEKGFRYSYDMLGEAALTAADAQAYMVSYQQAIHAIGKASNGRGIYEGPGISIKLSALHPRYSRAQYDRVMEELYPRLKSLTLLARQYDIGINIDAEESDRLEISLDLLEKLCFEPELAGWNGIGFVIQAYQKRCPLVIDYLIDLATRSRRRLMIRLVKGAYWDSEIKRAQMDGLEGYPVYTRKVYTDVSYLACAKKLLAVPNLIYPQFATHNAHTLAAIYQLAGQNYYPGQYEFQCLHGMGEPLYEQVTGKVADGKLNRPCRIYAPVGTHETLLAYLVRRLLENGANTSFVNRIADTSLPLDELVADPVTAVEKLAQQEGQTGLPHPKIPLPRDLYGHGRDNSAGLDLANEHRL

For `O=CN1CCC[C@H]1C(=O)O` [NFLP, N-formyl L-proline], in assay [1], the “substrate or inhibitor of bacterial PRODH (in words)” value was “neither a substrate nor an inhibitor”. The “electron density evidence for binding (in words)” value on human PYCR1 is on record as “Electron density evidence for binding was observed”.
